Measured values: US9737073B2, “Herbicidal weed control from combinations of fluroxypyr and ALS inhibitors” (Dow AgroSciences LLC, priority 2014, dated 2017)

Experiments:
Type in all cases: in vivo
[1] = tested on: Amaranthus rudis Sauer (common waterhemp, AMATA); assay: Postemergence herbicidal weed control, fluroxypyr-meptyl and diclosulam, greenhouse trials (Table 1)
Method: (§1) Seeds of the desired test plant species were planted in a peat-based potting soil, Metro-Mix 360® in plastic pots with a surface area of 128 square centimeters (cm^2). Metro-Mix 360® consists of formulated Canadian sphagnum peat moss, coarse perlite, bark ash, a starter nutrient charge (with gypsum), a slow-release nitrogen and dolomitic limestone. The plants were grown for 7-19 days in a greenhouse with an approximate 14-hour (h) photoperiod which was maintained at about 29° C. during the day and 26° C. during the night. Nutrients and water were added on a regular basis and supplemental lighting was provided with overhead metal halide 1000-Watt lamps as necessary. The plants were treated with postemergence foliar applications when they reached the third to fourth true leaf stage. All treatments were applied using a randomized complete block trial design, with 4 replications per treatment.
(§2) Treatments consisted of the compounds as listed in Tables 1 to 4, each compound applied alone and in combination. Commercially formulated products of fluroxypyr-meptyl (STARANE™, 333 grams acid equivalent per liter (g ae/L) EC), diclosulam (SPIDER® 84WG), cloransulam-methyl (FIRSTRATE™ 84WG), chlorimuron-ethyl (CLASSIC® 25WG) and thifensulfuron-methyl (HARMONY® 50SG). Formulated amounts of fluroxypyr-meptyl, diclosulam, cloransulam-methyl, chlorimuron-ethyl and thifensulfuron-methyl were placed in 60 milliliter (mL) glass vials and dissolved in a volume of 30 or 60 mL of a water solution containing Agri-dex crop oil concentrate in a 1% volume per volume (v/v) ratio. Compound requirements are based upon either a 30- or a 60-mL application volume at a rate of 200 liters per hectare (L/ha). Spray solutions of the mixtures were prepared by adding the stock solutions to the appropriate amount of dilution solution to form either a 30- or a 60-mL spray solution with active ingredients in single and two-way combinations. Formulated compounds were applied to the plant material with an overhead Generation III Research Sprayer manufactured by DeVries Manufacturing in Hollandale, Minn., USA. The track sprayer was equipped with an 8003E nozzle calibrated to deliver 200 L/ha at a spray height of 18 inches (43 centimeters (cm)) above average plant canopy.
(§3) The treated plants and untreated control plants were placed in a greenhouse as described above and watered by sub-irrigation to prevent wash-off of the test compounds.
(§4) Treatments were rated at 7 to 21 days after application (DAA) as compared to the untreated control plants. Visual weed control was scored on a scale of 0 to 100 percent where 0 corresponds to no injury and 100 corresponds to complete kill.
(§5) Colby's equation was used to determine the herbicidal effects expected from the mixtures (Colby, S. R. Calculation of the synergistic and antagonistic response of herbicide combinations. Weeds 196715, 20-22). A t-test (alpha=0.05) between Colby predictions and observed combinations was used to test for significant differences indicating synergy or antagonism. The results presented in the Tables were significant according to the described criteria.
(§6) The following equation was used to calculate the expected activity of mixtures containing two active ingredients, A and B: Expected=A+B−(A×B/100) • A=observed efficacy of active ingredient A at the same concentration as used in the mixture; • B=observed efficacy of active ingredient B at the same concentration as used in the mixture.

[2] = tested on: Chenopodium album (common lambsquarters, CHEAL); assay: as above
Method: as §1, §2, §3, §4, §5, §6

[3] = tested on: Abutilon theophrasti (velvetleaf, ABUTH); assay: as above
Method: as §1, §2, §3, §4, §5, §6

[4] = tested on: Amaranthus rudis Sauer (common waterhemp, AMATA); assay: Postemergence herbicidal weed control, fluroxypyr-meptyl and chlorimuron-ethyl, field trials (Table 3)
Method: as §1, §2, §3, §4
(§7) Field trials were conducted using standard herbicide small plot research methodology. Plots varied from 3×3.3 meter (m) to 4.5×10 m (width×length) with 4 replicates per treatment. The crops used in the field trials were grown using normal cultural practices for land preparation, fertilization, seeding and maintenance to ensure good growth of the crop and the weeds.
(§8) All treatments in the field trials were applied using either pressurized air or carbon dioxide (CO2) backpack or bicycle sprayers calibrated to apply 100-187 L/ha spray volume. Flat Fan spray nozzles were used in all trials, with water as the diluent applied at 275-300 kilopascals (kPa). Weed sizes at application ranged from 10 to 40 cm tall. Commercially available products of fluroxypyr-meptyl (STARANE™, 180 and 333 g ae/L EC), diclosulam (SPIDER® 84WG), and thifensulfuron-methyl (HARMONY® 75WG) were mixed in water at appropriately formulated product rates to achieve the desired rates based on a unit area of application (hectare) to achieve the desired rates as shown. No adjuvants were tank-mixed with any treatments applied in the field trials. Treatments were rated at 14-26 days after application as compared to the untreated control plants. […]

[5] = tested on: Abutilon theophrasti (velvetleaf, ABUTH); assay: as above
Method: as §1, §2, §3, §4, §7, §8

[6] = tested on: Sida cordifolia L. (heartleaf sida, SIDCO); assay: Postemergence herbicidal weed control, fluroxypyr-meptyl and diclosulam, greenhouse trials (Table 1); conditions: 14DAA1, 200 g ae/ha
Method: as §1
Treatments consisted of the compounds as listed in Tables 1 to 4, each compound applied alone and in combination. […]
Treatments were rated at 7 to 21 days after application (DAA) as compared to the untreated control plants. Visual weed control was scored on a scale of 0 to 100 percent where 0 corresponds to no injury and 100 corresponds to complete kill. […]

[7] = tested on: Chenopodium album (common lambsquarters, CHEAL); assay: Postemergence herbicidal weed control, fluroxypyr-meptyl and cloransulam-methyl, field trials (Table 2)
Method: as §1, §2, §3, §4, §7
as §8, with “[…] Visual weed control was scored on a scale of 0” for “Treatments were rated at 14-26 days after application as compared”, “100 percent where 0 corresponds to no injury and 100 corresponds to complete kill.” for “the untreated control plants.”

[8] = tested on: Amaranthus palmeri S. Wats. (Palmer amaranth, AMAPA); assay: Postemergence herbicidal weed control, fluroxypyr-meptyl and thifensulfuron-methyl, field trials (Table 4); conditions: 7DAA1, 50 g ae/ha
Method: as §1, §2, §3, §4, §7
(§9) All treatments in the field trials were applied using either pressurized air or carbon dioxide (CO2) backpack or bicycle sprayers calibrated to apply 100-187 L/ha spray volume. Flat Fan spray nozzles were used in all trials, with water as the diluent applied at 275-300 kilopascals (kPa). Weed sizes at application ranged from 10 to 40 cm tall. […]

[9] = tested on: Abutilon theophrasti (velvetleaf, ABUTH); assay: as above; conditions: 14DAA1, 100 g ae/ha
Method: as §1, §2, §3, §4, §7, §9

CCCCCCC(C)OC(=O)COc1nc(F)c(Cl)c(N)c1Cl (stereo not drawn) [Fluroxypyr-meptyl, fluroxypyr-methylheptyl ester]
Fluroxypyr-meptyl Mean % weed control ([1]; 8DAA1, 50 g ae/ha): 60.0% | Fluroxypyr-meptyl Mean % weed control ([1]; 14DAA1, 50 g ae/ha): 43.8% | Fluroxypyr-meptyl Mean % weed control ([1]; 14DAA1, 100 g ae/ha): 37.5% | Fluroxypyr-meptyl Mean % weed control ([1]; 21DAA1, 50 g ae/ha): 37.5% | Fluroxypyr-meptyl Mean % weed control ([1]; 21DAA1, 100 g ae/ha): 38.8% | Fluroxypyr-meptyl Mean % weed control ([2]; 8DAA1, 50 g ae/ha): 43.3% | Fluroxypyr-meptyl Mean % weed control ([2]; 14DAA1, 50 g ae/ha): 20.0% | Fluroxypyr-meptyl Mean % weed control ([2]; 21DAA1, 50 g ae/ha): 18.3% | Fluroxypyr-meptyl Mean % weed control ([2]; 21DAA1, 100 g ae/ha): 21.0% | Fluroxypyr-meptyl Mean % weed control ([3]; 14DAA1, 25 g ae/ha): 70.0% | Fluroxypyr-meptyl Mean % weed control ([3]; 21DAA1, 25 g ae/ha): 72.5% | Fluroxypyr-meptyl Mean % weed control ([4]; 7DAA1, 25 g ae/ha): 25.0% | Fluroxypyr-meptyl Mean % weed control ([4]; 14DAA1, 25 g ae/ha): 7.5% | Fluroxypyr-meptyl Mean % weed control ([5]; 14DAA1, 50 g ae/ha): 67.0% | Fluroxypyr-meptyl Mean % weed control ([5]; 14DAA1, 100 g ae/ha): 80.8% | Fluroxypyr-meptyl Mean % weed control [6]: 30.0% | Fluroxypyr-meptyl Mean % weed control ([7]; 8DAA1, 25 g ae/ha): 33.3% | Fluroxypyr-meptyl Mean % weed control ([7]; 14DAA1, 25 g ae/ha): 10.0% | Fluroxypyr-meptyl Mean % weed control ([7]; 14DAA1, 100 g ae/ha): 33.3% | Fluroxypyr-meptyl Mean % weed control ([7]; 21DAA1, 25 g ae/ha): 18.3% | Fluroxypyr-meptyl Mean % weed control ([7]; 21DAA1, 50 g ae/ha): 18.3% | Fluroxypyr-meptyl Mean % weed control ([7]; 21DAA1, 100 g ae/ha): 21.0% | Fluroxypyr-meptyl Mean % weed control [8]: 48.8% | Fluroxypyr-meptyl Mean % weed control [9]: 80.8%
